Laboratory results reported in paper PMC11879280, “Antimicrobial activity of peptoids against Metallo-β-lactamase-producing Klebsiella pneumoniae, Acinetobacter baumannii, Pseudomonas aeruginosa, and other WHO priority pathogens, including Candida auris” (Journal of Applied Microbiology, 2025).

What was measured:
A. baumannii 005 = conditions: A. baumannii 005; CAMHB, 37°C, 16–20 h
Description: (§1) Briefly, bacteria were suspended in cation-adjusted Mueller–Hinton broth (CAMHB; Oxoid, UK) for antibiotics, or MHB (Oxoid, UK) for peptidomimetics to obtain 5 × 10^5 colony forming unit (CFU) ml^−1. […] Positive controls contained only microbes, and blanks contained only media. Microbial suspensions (100 µl) were added to wells, plates wrapped, and incubated at 37°C, 120 rpm for 16–20 h. After incubation, suspensions were removed, log10 diluted, and plated on Trypticase Soya Agar with phosphatidylcholine and Tween 80 to determine minimum bactericidal or fungicidal concentration (MBC or MFC). […] Geometric mean MIC of the peptoids were calculated to evaluate the broad overview of antimicrobial activity across the pathogens.

A. baumannii 006 = conditions: A. baumannii 006; CAMHB, 37°C, 16–20 h
Description: as §1

A. baumannii 007 = conditions: A. baumannii 007; CAMHB, 37°C, 16–20 h
Description: as §1

A. baumannii 008 = conditions: A. baumannii 008; CAMHB, 37°C, 16–20 h
Description: as §1

A. baumannii ATCC 19 606 = conditions: A. baumannii ATCC 19 606; CAMHB, 37°C, 16–20 h
Description: as §1

E. coli 0010 = conditions: E. coli 0010; CAMHB, 37°C, 16–20 h
Description: as §1

E. coli 0011 = conditions: E. coli 0011; CAMHB, 37°C, 16–20 h
Description: as §1

E. coli 0015 = conditions: E. coli 0015; CAMHB, 37°C, 16–20 h
Description: as §1

E. coli 005 = conditions: E. coli 005; CAMHB, 37°C, 16–20 h
Description: as §1

En. cloacae 001 = conditions: En. cloacae 001; CAMHB, 37°C, 16–20 h
Description: as §1

En. cloacae 003 = conditions: En. cloacae 003; CAMHB, 37°C, 16–20 h
Description: as §1

En. cloacae 005 = conditions: En. cloacae 005; CAMHB, 37°C, 16–20 h
Description: as §1

K. pneumoniae JIE2709 [1] = conditions: K. pneumoniae JIE2709; CAMHB, 37°C, 16–20 h
Description: as §1

K. pneumoniae JIE2713 [2] = conditions: K. pneumoniae JIE2713; CAMHB, 37°C, 16–20 h
Description: as §1

K. pneumoniae JIE4212 = conditions: K. pneumoniae JIE4212; CAMHB, 37°C, 16–20 h
Description: as §1

P. aeruginosa 216 = conditions: P. aeruginosa 216; CAMHB, 37°C, 16–20 h
Description: as §1

P. aeruginosa 33 = conditions: P. aeruginosa 33; CAMHB, 37°C, 16–20 h
Description: as §1

P. aeruginosa AR-1270 = conditions: P. aeruginosa AR-1270; CAMHB, 37°C, 16–20 h
Description: as §1

K. pneumoniae JIE2709 [3] = experiment: Checkerboard microdilution synergy test; assay type: cell-based, Klebsiella pneumoniae; conditions: for MIC: Klebsiella pneumoniae, read-out: MIC of DrugB (alone, checkerboard); for FICDrugB / MF of antibiotic (modulation factor) / MIC of DrugB + TM8: in combination with TM8
Description: (§2) Then, 10 µl of bacteria (5 × 10^6 CFU ml^−1) or C. auris (2.5 × 10^4 CFU ml^−1) were added to each well, except for the sterility control well. […] The sterility control wells contained only MHB (or RPMI in case of C. auris), and the growth control contained 110 µl of microbial inoculum with no antimicrobials. Subsequently, the plates were incubated for 18- 24 hours at 36 ± 1 °C.
(§3) The FIC for each combination interaction was calculated as follows:
(§4) Then, the summation of FIC (ƩFIC) was calculated for each antimicrobial combination as follows: ƩFIC = FICA + FICB. […] All antimicrobial synergy experiments were repeated in at least two independent runs.

K. pneumoniae JIE2713 [4] = experiment: Checkerboard microdilution synergy test; assay type: cell-based, Klebsiella pneumoniae; conditions: for MIC: Klebsiella pneumoniae, read-out: MIC of DrugB (alone, checkerboard); for FICDrugB / MF of antibiotic (modulation factor) / MIC of DrugB + TM8: in combination with TM8
Description: as §2, §3, §4

| Molecule | MIC of antibiotics (A. baumannii 005) | MIC of antibiotics (A. baumannii 006) | MIC of antibiotics (A. baumannii 007) | MIC of antibiotics (A. baumannii 008) | MIC of antibiotics (A. baumannii ATCC 19 606) | MIC of antibiotics (E. coli 0010) | MIC of antibiotics (E. coli 0011) | MIC of antibiotics (E. coli 0015) | MIC of antibiotics (E. coli 005) | MIC of antibiotics (En. cloacae 001) | MIC of antibiotics (En. cloacae 003) | MIC of antibiotics (En. cloacae 005) | MIC of antibiotics (K. pneumoniae JIE2709 [1]) | MIC of antibiotics (K. pneumoniae JIE2713 [2]) | MIC of antibiotics (K. pneumoniae JIE4212) | MIC of antibiotics (P. aeruginosa 216) | MIC of antibiotics (P. aeruginosa 33) | MIC of antibiotics (P. aeruginosa AR-1270) | FICDrugB (K. pneumoniae JIE2713 [4]) | MF of antibiotic (modulation factor) (K. pneumoniae JIE2713 [4]) | further results |
| --- | --- | --- | --- | --- | --- | --- | --- | --- | --- | --- | --- | --- | --- | --- | --- | --- | --- | --- | --- | --- | --- |
| CC(C)(O/N=C(\C(=O)N[C@@H]1C(=O)N2C(C(=O)[O-])=C(C[n+]3ccccc3)CS[C@H]12)c1csc(N)n1)C(=O)O [Cefaz, ceftazidime, reference compound] | 512 µg/mL | 512 µg/mL | 512 µg/mL | 512 µg/mL | 8 µg/mL | 2 µg/mL | 4 µg/mL | 0.5 µg/mL | 0.25 µg/mL | 4 µg/mL | 4 µg/mL | 128 µg/mL | 32 µg/mL | >512 µg/mL | >512 µg/mL | 2 µg/mL | 32 µg/mL | >512 µg/mL | – | – | – |
| colistin sulfate [reference compound] | 0.25 µg/mL | 0.25 µg/mL | 1 µg/mL | 1 µg/mL | 2 µg/mL | 2 µg/mL | 2 µg/mL | 0.25 µg/mL | 0.25 µg/mL | 2 µg/mL | 1 µg/mL | 2 µg/mL | 1 µg/mL | 1 µg/mL | 1 µg/mL | 16 µg/mL | 1 µg/mL | 1 µg/mL | – | – | – |
| CO/N=C(\C(=O)N[C@@H]1C(=O)N2C(C(=O)O)=C(COC(C)=O)CS[C@H]12)c1csc(N)n1 [Cefot, cefotaxime, reference compound] | 512 µg/mL | 512 µg/mL | 512 µg/mL | 512 µg/mL | 8 µg/mL | 2 µg/mL | 4 µg/mL | 0.5 µg/mL | 0.25 µg/mL | 4 µg/mL | 8 µg/mL | 128 µg/mL | 32 µg/mL | >512 µg/mL | >512 µg/mL | – | – | – | 0.5 | 2 | MIC (K. pneumoniae JIE2709 [3]): 32 µg/mL; FICDrugB (K. pneumoniae JIE2709 [3]): 0.5; MF of antibiotic (modulation factor) (K. pneumoniae JIE2709 [3]): 2; MIC of DrugB + TM8 (K. pneumoniae JIE2709 [3]): 16 µg/mL; MIC (K. pneumoniae JIE2713 [4]): 1020 µg/mL; MIC of DrugB + TM8 (K. pneumoniae JIE2713 [4]): 512 µg/mL |
| O=C(O)c1cn(C2CC2)c2cc(N3CCNCC3)c(F)cc2c1=O [Cip, ciprofloxacin] | – | – | – | – | – | – | – | – | – | – | – | – | – | – | – | – | – | – | 0.023 | 4 | FICDrugB (K. pneumoniae JIE2709 [3]): 0.5; MF of antibiotic (modulation factor) (K. pneumoniae JIE2709 [3]): 2; MIC of DrugB + TM8 (K. pneumoniae JIE2713 [4]): 32 µg/mL |
| C[C@@H](O)[C@H]1C(=O)N2C(C(=O)O)=C(S[C@@H]3CN[C@H](C(=O)N(C)C)C3)[C@H](C)[C@H]12 [Mer, meropenem, reference compound] | >64 µg/mL | 64 µg/mL | 64 µg/mL | 64 µg/mL | 0.5 µg/mL | 2 µg/mL | 1 µg/mL | 2 µg/mL | 2 µg/mL | 1 µg/mL | 1 µg/mL | 0.25 µg/mL | 32 µg/mL | >64 µg/mL | 1 µg/mL | 1 µg/mL | 4 µg/mL | >64 µg/mL | – | – | MIC (K. pneumoniae JIE2709 [3]): 32 µg/mL; FICDrugB (K. pneumoniae JIE2709 [3]): 0.125; MF of antibiotic (modulation factor) (K. pneumoniae JIE2709 [3]): 8; MIC of DrugB + TM8 (K. pneumoniae JIE2709 [3]): 4 µg/mL |
| CNC(C)C1CCC(N)C(OC2C(N)CC(N)C(OC3OCC(C)(O)C(NC)C3O)C2O)O1 (stereo not shown) [Gen, gentamicin, reference compound] | >128 µg/mL | >128 µg/mL | >128 µg/mL | >128 µg/mL | 4 µg/mL | 0.25 µg/mL | 0.5 µg/mL | 0.5 µg/mL | 0.25 µg/mL | 4 µg/mL | 0.5 µg/mL | 0.25 µg/mL | 0.5 µg/mL | >128 µg/mL | 128 µg/mL | – | >128 µg/mL | >128 µg/mL | 0.5 | 2 | MIC (K. pneumoniae JIE2713 [4]): 1020 µg/mL; MIC of DrugB + TM8 (K. pneumoniae JIE2713 [4]): 512 µg/mL |
| polymyxin B [PmB, reference compound] | 0.25 µg/mL | 0.25 µg/mL | 1 µg/mL | 1 µg/mL | 2 µg/mL | 2 µg/mL | 2 µg/mL | 0.25 µg/mL | 0.25 µg/mL | 2 µg/mL | 1 µg/mL | 2 µg/mL | 1 µg/mL | 1 µg/mL | 1 µg/mL | 16 µg/mL | 2 µg/mL | 2 µg/mL | – | – | – |
| C[C@H]1[C@H](NC(=O)/C(=N\OC(C)(C)C(=O)O)c2csc(N)n2)C(=O)N1S(=O)(=O)O [Azt, aztreonam, reference compound] | – | – | – | – | – | 2 µg/mL | 4 µg/mL | 0.5 µg/mL | 0.5 µg/mL | 4 µg/mL | 4 µg/mL | 16 µg/mL | >128 µg/mL | 128 µg/mL | >128 µg/mL | 4 µg/mL | 128 µg/mL | >128 µg/mL | 0.5 | 2 | MIC (K. pneumoniae JIE2713 [4]): 128 µg/mL; MIC of DrugB + TM8 (K. pneumoniae JIE2713 [4]): 64 µg/mL |
